Data from ChEMBL document CHEMBL5291721, “A preclinical secondary pharmacology resource illuminates target-adverse drug reaction associations of marketed drugs” (Nat Commun, 2023).

Assays:
Adenosine receptor A3 = molecular target: T1, Adenosine receptor A3 (Homo sapiens, UniProt P0DMS8)
T1 sequence (P0DMS8 whole entry): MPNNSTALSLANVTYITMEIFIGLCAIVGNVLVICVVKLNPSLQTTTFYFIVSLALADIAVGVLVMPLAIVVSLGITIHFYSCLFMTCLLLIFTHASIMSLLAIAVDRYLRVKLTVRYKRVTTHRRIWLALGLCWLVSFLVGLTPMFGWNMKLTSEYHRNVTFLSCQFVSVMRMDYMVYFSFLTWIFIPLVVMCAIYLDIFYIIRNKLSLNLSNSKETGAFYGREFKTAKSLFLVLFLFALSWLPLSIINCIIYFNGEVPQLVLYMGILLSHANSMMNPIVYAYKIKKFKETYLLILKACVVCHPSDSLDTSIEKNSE

Prothrombin = Prothrombin (Homo sapiens, UniProt P00734); assay type: functional
[1] = molecular target: T2, Prostaglandin G/H synthase 1 (Homo sapiens, UniProt P23219); assay type: functional
Acetylcholinesterase = Acetylcholinesterase (Homo sapiens, UniProt P22303); assay type: functional
Cannabinoid receptor 1 = Cannabinoid receptor 1 (Homo sapiens, UniProt P21554); assay type: functional, cell-based
[2] = molecular target: Kappa-type opioid receptor (Homo sapiens, UniProt P41145)
[3] = molecular target: T2, Prostaglandin G/H synthase 1; assay type: functional; remark: listed apart in the source
[4] = molecular target: T3, Alpha-2B adrenergic receptor (Homo sapiens, UniProt P18089)
T3 sequence (P18089 whole entry): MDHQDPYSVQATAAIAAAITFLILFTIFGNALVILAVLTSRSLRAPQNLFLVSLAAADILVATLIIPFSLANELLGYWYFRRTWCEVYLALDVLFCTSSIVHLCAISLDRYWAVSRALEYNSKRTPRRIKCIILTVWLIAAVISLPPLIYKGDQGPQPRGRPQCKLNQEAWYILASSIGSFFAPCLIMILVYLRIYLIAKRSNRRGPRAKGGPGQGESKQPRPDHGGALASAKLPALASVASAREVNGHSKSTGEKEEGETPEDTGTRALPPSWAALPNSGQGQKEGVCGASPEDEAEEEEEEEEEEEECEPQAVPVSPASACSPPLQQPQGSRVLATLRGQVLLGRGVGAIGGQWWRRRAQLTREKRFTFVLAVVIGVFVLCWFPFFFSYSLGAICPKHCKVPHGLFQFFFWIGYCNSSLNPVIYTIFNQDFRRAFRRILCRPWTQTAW

D(1A) dopamine receptor = D(1A) dopamine receptor (Homo sapiens, UniProt P21728)
[5] = molecular target: T4, Muscarinic acetylcholine receptor M1 (Homo sapiens, UniProt P11229); assay type: functional, cell-based
T4 sequence (P11229 whole entry): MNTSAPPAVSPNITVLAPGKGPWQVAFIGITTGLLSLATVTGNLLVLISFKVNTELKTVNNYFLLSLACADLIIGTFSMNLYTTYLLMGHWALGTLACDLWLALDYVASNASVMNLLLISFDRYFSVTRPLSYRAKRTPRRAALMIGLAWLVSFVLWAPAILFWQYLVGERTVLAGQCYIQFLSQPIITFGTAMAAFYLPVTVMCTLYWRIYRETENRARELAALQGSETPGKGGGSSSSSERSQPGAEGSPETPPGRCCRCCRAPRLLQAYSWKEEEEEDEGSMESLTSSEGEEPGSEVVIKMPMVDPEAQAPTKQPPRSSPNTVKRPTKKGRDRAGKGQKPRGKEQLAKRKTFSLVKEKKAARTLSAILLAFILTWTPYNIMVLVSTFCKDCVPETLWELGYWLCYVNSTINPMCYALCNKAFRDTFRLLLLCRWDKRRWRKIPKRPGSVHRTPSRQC

[6] = molecular target: Sodium-dependent serotonin transporter (Homo sapiens, UniProt P31645)
Histamine H3 receptor = Histamine H3 receptor (Homo sapiens, UniProt Q9Y5N1)
D(3) dopamine receptor = D(3) dopamine receptor (Homo sapiens, UniProt P35462)
B2 bradykinin receptor = molecular target: T5, B2 bradykinin receptor (Homo sapiens, UniProt P30411)
T5 sequence (P30411 whole entry): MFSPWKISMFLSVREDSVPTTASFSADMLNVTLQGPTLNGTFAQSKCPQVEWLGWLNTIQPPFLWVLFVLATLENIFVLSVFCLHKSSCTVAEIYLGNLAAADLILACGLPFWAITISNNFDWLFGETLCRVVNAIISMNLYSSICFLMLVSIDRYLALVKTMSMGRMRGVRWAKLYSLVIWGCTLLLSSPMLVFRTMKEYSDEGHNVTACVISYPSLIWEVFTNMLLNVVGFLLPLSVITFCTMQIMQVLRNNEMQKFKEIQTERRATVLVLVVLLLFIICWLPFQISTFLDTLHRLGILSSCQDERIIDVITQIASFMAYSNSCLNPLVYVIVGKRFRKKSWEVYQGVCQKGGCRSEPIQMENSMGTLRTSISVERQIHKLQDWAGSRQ

[7] = molecular target: Beta-2 adrenergic receptor (Homo sapiens, UniProt P07550)
[8] = molecular target: T6, Alpha-1A adrenergic receptor (Homo sapiens, UniProt P35348)
T6 sequence (P35348 whole entry): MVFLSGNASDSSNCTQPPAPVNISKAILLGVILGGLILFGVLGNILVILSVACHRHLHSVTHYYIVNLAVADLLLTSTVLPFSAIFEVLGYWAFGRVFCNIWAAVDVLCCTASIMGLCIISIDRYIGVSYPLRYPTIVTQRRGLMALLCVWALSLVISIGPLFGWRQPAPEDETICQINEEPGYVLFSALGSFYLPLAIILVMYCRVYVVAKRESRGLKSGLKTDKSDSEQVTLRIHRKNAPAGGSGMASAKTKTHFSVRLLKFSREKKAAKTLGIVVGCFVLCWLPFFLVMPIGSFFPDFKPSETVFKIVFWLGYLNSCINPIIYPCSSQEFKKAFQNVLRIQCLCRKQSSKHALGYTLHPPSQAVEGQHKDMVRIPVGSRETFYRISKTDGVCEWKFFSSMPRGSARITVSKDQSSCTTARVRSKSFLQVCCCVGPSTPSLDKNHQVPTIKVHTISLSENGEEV

Melanocortin receptor 4 = Melanocortin receptor 4 (Homo sapiens, UniProt P32245)
Also: assay procedure not described here.

Sequence of D(3) dopamine receptor (P35462 whole entry): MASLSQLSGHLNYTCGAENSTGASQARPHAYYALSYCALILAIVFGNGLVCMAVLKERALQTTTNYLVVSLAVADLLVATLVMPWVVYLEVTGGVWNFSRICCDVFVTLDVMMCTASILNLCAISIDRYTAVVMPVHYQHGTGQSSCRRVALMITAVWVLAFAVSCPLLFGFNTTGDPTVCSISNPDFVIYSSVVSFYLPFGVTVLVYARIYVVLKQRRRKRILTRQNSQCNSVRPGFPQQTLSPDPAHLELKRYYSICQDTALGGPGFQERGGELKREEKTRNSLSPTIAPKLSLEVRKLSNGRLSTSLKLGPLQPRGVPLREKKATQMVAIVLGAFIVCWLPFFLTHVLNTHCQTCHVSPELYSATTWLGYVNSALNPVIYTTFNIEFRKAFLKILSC
Sequence of Sodium-dependent serotonin transporter (P31645 whole entry): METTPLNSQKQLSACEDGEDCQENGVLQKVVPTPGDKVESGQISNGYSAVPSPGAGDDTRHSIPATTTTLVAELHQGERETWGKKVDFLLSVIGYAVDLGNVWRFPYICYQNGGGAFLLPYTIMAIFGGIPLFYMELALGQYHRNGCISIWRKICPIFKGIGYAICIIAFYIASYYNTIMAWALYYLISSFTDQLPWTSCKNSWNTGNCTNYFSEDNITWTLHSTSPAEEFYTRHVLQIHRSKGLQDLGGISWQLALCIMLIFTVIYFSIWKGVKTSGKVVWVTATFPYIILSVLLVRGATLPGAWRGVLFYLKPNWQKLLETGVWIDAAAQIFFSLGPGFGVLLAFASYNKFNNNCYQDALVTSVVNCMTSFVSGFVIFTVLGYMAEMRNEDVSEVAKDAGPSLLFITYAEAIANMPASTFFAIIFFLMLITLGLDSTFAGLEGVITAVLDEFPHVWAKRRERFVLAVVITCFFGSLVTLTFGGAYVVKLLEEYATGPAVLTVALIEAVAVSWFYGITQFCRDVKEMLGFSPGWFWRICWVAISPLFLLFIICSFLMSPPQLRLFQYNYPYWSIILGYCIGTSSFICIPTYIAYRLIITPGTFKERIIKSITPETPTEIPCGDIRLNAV
T2 sequence (P23219 whole entry): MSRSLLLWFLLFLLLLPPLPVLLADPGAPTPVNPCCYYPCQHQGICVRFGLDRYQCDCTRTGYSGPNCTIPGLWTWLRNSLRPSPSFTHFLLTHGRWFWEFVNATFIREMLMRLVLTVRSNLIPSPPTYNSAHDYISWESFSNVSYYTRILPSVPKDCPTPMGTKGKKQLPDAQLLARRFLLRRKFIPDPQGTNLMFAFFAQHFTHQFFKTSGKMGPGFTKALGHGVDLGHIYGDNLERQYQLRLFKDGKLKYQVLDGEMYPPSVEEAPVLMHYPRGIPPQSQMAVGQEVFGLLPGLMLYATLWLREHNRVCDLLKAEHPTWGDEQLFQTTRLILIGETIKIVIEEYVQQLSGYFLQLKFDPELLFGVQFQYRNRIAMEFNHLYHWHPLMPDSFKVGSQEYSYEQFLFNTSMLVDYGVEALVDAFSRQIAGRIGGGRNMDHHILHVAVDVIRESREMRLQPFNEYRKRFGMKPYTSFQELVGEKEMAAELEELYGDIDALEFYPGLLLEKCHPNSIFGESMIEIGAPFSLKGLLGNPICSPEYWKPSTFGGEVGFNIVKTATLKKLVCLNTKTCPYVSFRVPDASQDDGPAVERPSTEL
Sequence of D(1A) dopamine receptor (P21728 whole entry): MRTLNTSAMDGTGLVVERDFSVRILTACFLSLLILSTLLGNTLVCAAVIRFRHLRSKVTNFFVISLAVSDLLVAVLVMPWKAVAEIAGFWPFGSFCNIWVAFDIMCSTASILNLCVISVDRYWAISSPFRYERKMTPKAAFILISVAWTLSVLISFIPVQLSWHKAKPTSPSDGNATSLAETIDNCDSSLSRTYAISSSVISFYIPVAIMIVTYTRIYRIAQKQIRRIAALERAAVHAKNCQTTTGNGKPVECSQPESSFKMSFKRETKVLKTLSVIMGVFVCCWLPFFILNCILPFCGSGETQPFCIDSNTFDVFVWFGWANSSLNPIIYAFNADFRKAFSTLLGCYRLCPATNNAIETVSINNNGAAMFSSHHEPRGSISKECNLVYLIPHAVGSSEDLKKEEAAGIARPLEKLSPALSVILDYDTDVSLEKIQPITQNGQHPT
Sequence of Cannabinoid receptor 1 (P21554 whole entry): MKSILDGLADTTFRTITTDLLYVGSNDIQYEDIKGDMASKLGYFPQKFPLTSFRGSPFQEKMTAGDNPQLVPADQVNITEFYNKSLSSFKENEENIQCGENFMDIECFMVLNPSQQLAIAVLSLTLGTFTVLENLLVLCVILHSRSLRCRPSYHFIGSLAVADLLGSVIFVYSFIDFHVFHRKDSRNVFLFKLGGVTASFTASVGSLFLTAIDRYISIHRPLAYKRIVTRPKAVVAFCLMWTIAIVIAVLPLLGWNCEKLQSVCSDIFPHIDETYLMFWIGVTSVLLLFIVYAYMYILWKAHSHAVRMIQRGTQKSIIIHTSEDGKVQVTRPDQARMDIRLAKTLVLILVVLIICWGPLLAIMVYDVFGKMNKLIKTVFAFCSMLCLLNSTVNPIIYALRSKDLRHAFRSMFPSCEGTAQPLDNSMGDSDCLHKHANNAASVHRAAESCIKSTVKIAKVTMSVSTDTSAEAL
Sequence of Kappa-type opioid receptor (P41145 whole entry): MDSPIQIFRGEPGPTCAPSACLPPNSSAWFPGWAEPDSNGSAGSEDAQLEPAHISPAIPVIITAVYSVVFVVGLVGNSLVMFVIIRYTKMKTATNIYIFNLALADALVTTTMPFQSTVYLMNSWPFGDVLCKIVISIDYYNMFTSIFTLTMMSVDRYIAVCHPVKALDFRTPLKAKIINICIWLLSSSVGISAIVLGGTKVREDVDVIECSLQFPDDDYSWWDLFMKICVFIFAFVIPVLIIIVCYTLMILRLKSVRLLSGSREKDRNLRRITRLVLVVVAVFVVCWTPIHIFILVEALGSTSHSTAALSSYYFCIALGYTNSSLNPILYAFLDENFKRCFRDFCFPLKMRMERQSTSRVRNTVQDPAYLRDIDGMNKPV
Sequence of Acetylcholinesterase (P22303 whole entry): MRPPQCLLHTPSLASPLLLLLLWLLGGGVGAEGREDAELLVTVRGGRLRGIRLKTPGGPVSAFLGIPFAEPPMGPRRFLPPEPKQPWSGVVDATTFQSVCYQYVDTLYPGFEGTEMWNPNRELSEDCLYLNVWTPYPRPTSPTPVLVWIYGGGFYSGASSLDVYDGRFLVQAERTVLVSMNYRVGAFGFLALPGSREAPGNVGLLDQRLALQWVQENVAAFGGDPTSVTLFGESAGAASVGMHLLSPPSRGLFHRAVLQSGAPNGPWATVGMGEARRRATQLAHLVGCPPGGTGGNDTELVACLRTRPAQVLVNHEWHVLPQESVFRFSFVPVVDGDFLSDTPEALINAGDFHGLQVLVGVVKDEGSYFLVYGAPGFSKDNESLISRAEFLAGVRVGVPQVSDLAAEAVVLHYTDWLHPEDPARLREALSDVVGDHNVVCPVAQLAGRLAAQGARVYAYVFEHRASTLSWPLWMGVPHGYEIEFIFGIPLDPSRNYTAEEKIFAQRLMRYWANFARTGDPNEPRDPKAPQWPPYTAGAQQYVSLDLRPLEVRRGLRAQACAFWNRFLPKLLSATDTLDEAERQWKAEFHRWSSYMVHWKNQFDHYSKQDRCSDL
Sequence of Histamine H3 receptor (Q9Y5N1 whole entry): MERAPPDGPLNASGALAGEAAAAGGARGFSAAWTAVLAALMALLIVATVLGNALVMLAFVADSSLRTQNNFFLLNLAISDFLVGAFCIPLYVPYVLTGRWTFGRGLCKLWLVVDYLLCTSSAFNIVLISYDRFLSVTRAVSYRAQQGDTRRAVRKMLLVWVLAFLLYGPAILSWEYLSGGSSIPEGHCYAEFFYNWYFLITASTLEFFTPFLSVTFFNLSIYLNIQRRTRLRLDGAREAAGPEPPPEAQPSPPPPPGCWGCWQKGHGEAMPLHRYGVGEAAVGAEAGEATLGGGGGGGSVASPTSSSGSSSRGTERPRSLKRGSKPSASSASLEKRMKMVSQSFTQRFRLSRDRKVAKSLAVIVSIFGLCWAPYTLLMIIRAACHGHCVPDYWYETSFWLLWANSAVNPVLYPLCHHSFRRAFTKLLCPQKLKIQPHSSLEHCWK
Sequence of Beta-2 adrenergic receptor (P07550 whole entry): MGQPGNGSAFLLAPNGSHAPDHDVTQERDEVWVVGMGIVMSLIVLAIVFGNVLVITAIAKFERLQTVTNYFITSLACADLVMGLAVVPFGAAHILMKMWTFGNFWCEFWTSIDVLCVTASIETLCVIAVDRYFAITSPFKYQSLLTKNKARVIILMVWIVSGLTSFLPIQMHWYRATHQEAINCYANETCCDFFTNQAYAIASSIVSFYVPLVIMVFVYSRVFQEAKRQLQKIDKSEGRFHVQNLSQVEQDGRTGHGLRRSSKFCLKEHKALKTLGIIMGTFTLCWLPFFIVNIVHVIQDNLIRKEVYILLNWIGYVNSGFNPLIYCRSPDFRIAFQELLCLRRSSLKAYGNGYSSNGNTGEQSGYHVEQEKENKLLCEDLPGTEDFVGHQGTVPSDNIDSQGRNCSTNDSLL
Sequence of Melanocortin receptor 4 (P32245 whole entry): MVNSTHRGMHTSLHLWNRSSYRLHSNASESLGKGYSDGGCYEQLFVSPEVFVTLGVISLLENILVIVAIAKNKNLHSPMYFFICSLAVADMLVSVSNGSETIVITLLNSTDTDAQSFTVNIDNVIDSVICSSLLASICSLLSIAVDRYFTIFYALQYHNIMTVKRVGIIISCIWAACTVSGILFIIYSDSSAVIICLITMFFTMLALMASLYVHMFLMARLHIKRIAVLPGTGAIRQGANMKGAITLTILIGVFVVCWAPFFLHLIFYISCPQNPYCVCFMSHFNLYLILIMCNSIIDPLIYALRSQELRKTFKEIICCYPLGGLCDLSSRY

C=CCc1ccccc1OCC(O)CNC(C)C (stereo not given) [ALPRENOLOL]
AC50 (Adenosine receptor A3): > 0.3 µM | AC50 (Prothrombin): > 0.3 µM | AC50 [1]: > 0.3 µM | AC50 (Acetylcholinesterase): > 0.3 µM | AC50 (Cannabinoid receptor 1): > 30 µM | AC50 [2]: > 30 µM | AC50 [3]: > 0.3 µM | AC50 [4]: > 30 µM | AC50 (D(1A) dopamine receptor): > 0.3 µM | AC50 [5]: > 0.3 µM | AC50 [6]: > 0.3 µM | AC50 (Histamine H3 receptor): > 30 µM | AC50 (D(3) dopamine receptor): > 0.3 µM | AC50 (B2 bradykinin receptor): 14 µM

O=C(OCC(O)CO)c1ccccc1Nc1ccnc2cc(Cl)ccc12 (stereo not given) [GLAFENINE]
AC50 (Adenosine receptor A3): 1.4 µM | AC50 (Prothrombin): > 30 µM | AC50 [1]: > 30 µM | AC50 (Acetylcholinesterase): > 30 µM | AC50 (Cannabinoid receptor 1): > 30 µM | AC50 [3]: 4.63 µM | AC50 [4]: > 30 µM | AC50 (D(1A) dopamine receptor): > 30 µM | AC50 [5]: > 30 µM | AC50 [6]: > 30 µM | AC50 (Histamine H3 receptor): > 30 µM | AC50 (D(3) dopamine receptor): > 30 µM

O=C(CCNNC(=O)c1ccncc1)NCc1ccccc1 [NIALAMIDE]
AC50 (Adenosine receptor A3): > 30 µM | AC50 (Prothrombin): > 30 µM | AC50 [1]: 8.28 µM | AC50 (Acetylcholinesterase): > 30 µM | AC50 [3]: 1.65 µM | AC50 (D(1A) dopamine receptor): > 30 µM | AC50 [5]: > 30 µM | AC50 [6]: > 30 µM | AC50 (D(3) dopamine receptor): > 30 µM

CC1(C)NC(=O)N(c2ccc([N+](=O)[O-])c(C(F)(F)F)c2)C1=O [NILUTAMIDE]
AC50 (Prothrombin): > 30 µM | AC50 [1]: > 30 µM | AC50 (Acetylcholinesterase): > 30 µM | AC50 [7]: > 30 µM | AC50 [2]: > 30 µM | AC50 [3]: > 30 µM | AC50 [4]: > 30 µM | AC50 (D(1A) dopamine receptor): > 30 µM | AC50 [5]: > 30 µM | AC50 [8]: > 30 µM | AC50 [6]: > 30 µM | AC50 (Histamine H3 receptor): > 30 µM | AC50 (Melanocortin receptor 4): > 30 µM | AC50 (D(3) dopamine receptor): > 30 µM | AC50 (B2 bradykinin receptor): > 30 µM

CC[C@H]1[C@@H](O)[C@@H]2[C@H](CC[C@]3(C)[C@@H]([C@H](C)CCC(=O)O)CC[C@@H]23)[C@@]2(C)CC[C@@H](O)C[C@@H]12 [OBETICHOLIC ACID]
AC50 (Adenosine receptor A3): > 30 µM | AC50 (Prothrombin): > 30 µM | AC50 [1]: > 30 µM | AC50 (Acetylcholinesterase): > 30 µM | AC50 [7]: > 30 µM | AC50 (Cannabinoid receptor 1): > 30 µM | AC50 [2]: > 30 µM | AC50 [3]: > 30 µM | AC50 [4]: > 30 µM | AC50 (D(1A) dopamine receptor): > 30 µM | AC50 [5]: > 30 µM | AC50 [6]: > 30 µM | AC50 (Histamine H3 receptor): > 30 µM | AC50 (D(3) dopamine receptor): > 30 µM | AC50 (B2 bradykinin receptor): > 30 µM

CC[N+]1(C)[C@@H]2CC(OC(=O)[C@H](CO)c3ccccc3)C[C@H]1[C@@H]1O[C@@H]12 (stereo not given in full) [OXITROPIUM]
AC50 (Adenosine receptor A3): > 30 µM | AC50 (Prothrombin): > 30 µM | AC50 [1]: > 30 µM | AC50 (Acetylcholinesterase): > 30 µM | AC50 [3]: > 30 µM | AC50 (D(1A) dopamine receptor): > 30 µM | AC50 [5]: > 30 µM | AC50 [6]: > 30 µM | AC50 (D(3) dopamine receptor): > 30 µM

CC(C)(C)NC[C@H](O)COc1ccccc1C1CCCC1 [PENBUTOLOL]
AC50 (Adenosine receptor A3): > 30 µM | AC50 (Prothrombin): > 30 µM | AC50 [1]: 21.1 µM | AC50 (Acetylcholinesterase): > 30 µM | AC50 [3]: 26.4 µM | AC50 (D(1A) dopamine receptor): 27.8 µM | AC50 [5]: > 30 µM | AC50 [6]: 5.53 µM | AC50 (D(3) dopamine receptor): 7.74 µM

CN(C)S(=O)(=O)c1ccc2c(c1)N(CCCN1CCC(CCO)CC1)c1ccccc1S2 [PIPOTIAZINE]
AC50 (Adenosine receptor A3): > 30 µM | AC50 (Prothrombin): > 30 µM | AC50 [1]: > 30 µM | AC50 (Acetylcholinesterase): > 30 µM | AC50 [3]: > 30 µM | AC50 (D(1A) dopamine receptor): 0.0201 µM | AC50 [5]: > 30 µM | AC50 [6]: > 30 µM | AC50 (D(3) dopamine receptor): 0.003 µM

CCC(=O)NCC[C@@H]1CCc2ccc3c(c21)CCO3 [RAMELTEON]
AC50 (Adenosine receptor A3): > 30 µM | AC50 (Prothrombin): > 30 µM | AC50 [1]: > 30 µM | AC50 (Acetylcholinesterase): > 30 µM | AC50 [3]: > 30 µM | AC50 (D(1A) dopamine receptor): > 30 µM | AC50 [5]: > 30 µM | AC50 [6]: > 30 µM | AC50 (D(3) dopamine receptor): > 30 µM

CCOC(=O)[C@H](CCc1ccccc1)N[C@@H](C)C(=O)N1[C@H](C(=O)O)C[C@H]2CCCC[C@@H]21 [TRANDOLAPRIL]
AC50 (Adenosine receptor A3): > 30 µM | AC50 (Prothrombin): > 30 µM | AC50 [1]: > 30 µM | AC50 (Acetylcholinesterase): > 30 µM | AC50 [3]: > 30 µM | AC50 (D(1A) dopamine receptor): > 30 µM | AC50 [5]: > 30 µM | AC50 [6]: > 30 µM | AC50 (D(3) dopamine receptor): > 30 µM
